Inconclusive results and toxic doses are left out.
System: L1210 leukemia ip in BDF1 mice, survival T/C
Assay: NCI In Vivo Anticancer Drug Screen. Data for tumor model L1210 Leukemia (intraperitoneal) in B6D2F1 (BDF1) mice
Conditions: endpoint: mean survival time, higher = longer survival
Method in brief: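 In this screen, tumor-bearing mice given compound are compared to those given vehicle, and their survival values are reported as a treated-to-control quotient.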

[1] = dose: 100.0 mg/kg/injection, schedule: Q04DX003 (ip), vehicle: saline
[2] = dose: 200.0 mg/kg/injection, schedule: Q04DX003 (ip), vehicle: saline
[3] = dose: 400.0 mg/kg/injection, schedule: Q04DX003 (ip), vehicle: saline
[4] = dose: 50.0 mg/kg/injection, schedule: Q01DX009 (ip), vehicle: saline with Tween-80
[5] = dose: 100.0 mg/kg/injection, schedule: Q04DX002 (ip), vehicle: saline with Tween-80
[6] = dose: 200.0 mg/kg/injection, schedule: Q04DX002 (ip), vehicle: saline with Tween-80
[7] = dose: 100.0 mg/kg/injection, schedule: Q04DX003 (ip), vehicle: Klucel (hydroxypropylcellulose) (HPC)
[8] = dose: 200.0 mg/kg/injection, schedule: Q04DX003 (ip), vehicle: Klucel (hydroxypropylcellulose) (HPC)
[9] = dose: 400.0 mg/kg/injection, schedule: Q04DX003 (ip), vehicle: Klucel (hydroxypropylcellulose) (HPC)
[10] = dose: 100.0 mg/kg/injection, schedule: Q01DX009 (ip), vehicle: saline with Tween-80
[11] = dose: 100.0 mg/kg/injection, schedule: Q04DX003 (ip), vehicle: saline with Tween-80
[12] = dose: 200.0 mg/kg/injection, schedule: Q04DX003 (ip), vehicle: saline with Tween-80
[13] = dose: 400.0 mg/kg/injection, schedule: Q04DX003 (ip), vehicle: saline with Tween-80
[14] = dose: 100.0 mg/kg/injection, schedule: Q04DX002 (ip), vehicle: Klucel (hydroxypropylcellulose) (HPC)
[15] = dose: 200.0 mg/kg/injection, schedule: Q04DX002 (ip), vehicle: Klucel (hydroxypropylcellulose) (HPC)
[16] = dose: 400.0 mg/kg/injection, schedule: Q04DX002 (ip), vehicle: Klucel (hydroxypropylcellulose) (HPC)
[17] = dose: 100.0 mg/kg/injection, schedule: Q01DX001 (ip), vehicle: saline
[18] = dose: 200.0 mg/kg/injection, schedule: Q01DX001 (ip), vehicle: saline
[19] = dose: 400.0 mg/kg/injection, schedule: Q01DX001 (ip), vehicle: saline
[20] = dose: 100.0 mg/kg/injection, schedule: Q01DX009 (ip), vehicle: Klucel (hydroxypropylcellulose) (HPC)
[21] = dose: 200.0 mg/kg/injection, schedule: Q01DX009 (ip), vehicle: Klucel (hydroxypropylcellulose) (HPC)
[22] = dose: 400.0 mg/kg/injection, schedule: Q01DX009 (ip), vehicle: Klucel (hydroxypropylcellulose) (HPC)

CCCCOC(=O)c1ccc(NC(=O)CCC(C)Cl)cc1 (configuration not stated)
T/C [1]: 94 % of control
T/C [2]: 90 % of control
T/C [3]: 92 % of control

O=C1OCCN1/N=C/c1ccc(Cl)cc1
T/C (dose: 25.0 mg/kg/injection, schedule: Q01DX009 (ip), vehicle: saline with Tween-80): 102 % of control
T/C (dose: 37.5 mg/kg/injection, schedule: Q01DX009 (ip), vehicle: saline with Tween-80): 98 % of control
T/C [4]: 102 % of control
T/C (dose: 75.0 mg/kg/injection, schedule: Q01DX009 (ip), vehicle: saline with Tween-80): 93 % of control
T/C [5]: 96 % of control
T/C [6]: 107 % of control

c1ccc(-c2nc(-c3ccccc3)nc(-c3ccccc3)n2)cc1
T/C [7]: 98 % of control
T/C [8]: 94 % of control
T/C [9]: 94 % of control

COc1ccc(OC)c(CC(CC(=O)O)(C(=O)O)C(=O)O)c1
T/C [7]: 91 % of control
T/C [8]: 96 % of control
T/C [9]: 96 % of control

C/C(=C\Cl)CN1C(=O)c2ccccc2C1=O
T/C (dose: 100.0 mg/kg/injection, schedule: Q01DX009 (ip), vehicle: saline): 93 % of control
T/C [1]: 97 % of control
T/C (dose: 200.0 mg/kg/injection, schedule: Q01DX009 (ip), vehicle: saline): 113 % of control
T/C [2]: 101 % of control
T/C (dose: 400.0 mg/kg/injection, schedule: Q01DX009 (ip), vehicle: saline): 102 % of control
T/C [3]: 105 % of control

CN(CCN(C)P(=O)(N1CC1)N1CC1)P(=O)(N1CC1)N1CC1
T/C (dose: 0.62 mg/kg/injection, schedule: Q01DX Z (ip), vehicle: saline): 87 % of control
T/C (dose: 1.25 mg/kg/injection, schedule: Q01DX Z (ip), vehicle: saline): 90 % of control
T/C (dose: 2.5 mg/kg/injection, schedule: Q01DX Z (ip), vehicle: saline): 92 % of control
T/C (dose: 5.0 mg/kg/injection, schedule: Q01DX Z (ip), vehicle: saline): 108 % of control
T/C (dose: 20.0 mg/kg/injection, schedule: Q01DX Z (ip), vehicle: saline): 156 % of control

Fc1ccc2[nH]c3cc4ccncc4cc3c2c1
T/C (dose: 50.0 mg/kg/injection, schedule: Q04DX002 (ip), vehicle: saline): 101 % of control
T/C (dose: 100.0 mg/kg/injection, schedule: Q04DX002 (ip), vehicle: saline): 94 % of control
T/C (dose: 200.0 mg/kg/injection, schedule: Q04DX002 (ip), vehicle: saline): 94 % of control

COc1cc2c3c(c4cc(OC)c(OC)cc4c2cc1OC)CN1CCC[C@H]1C3
T/C (dose: 4.0 mg/kg/injection, schedule: Q01DX015 (ip), vehicle: water): 100 % of control
T/C (dose: 6.0 mg/kg/injection, schedule: Q01DX015 (ip), vehicle: water): 100 % of control
T/C (dose: 6.25 mg/kg/injection, schedule: Q01DX015 (ip), vehicle: water): 112 % of control
T/C (dose: 8.0 mg/kg/injection, schedule: Q01DX Z (ip), vehicle: water): 107 % of control
T/C (dose: 9.0 mg/kg/injection, schedule: Q01DX015 (ip), vehicle: water): 112 % of control
T/C (dose: 12.0 mg/kg/injection, schedule: Q01DX Z (ip), vehicle: water): 100 % of control
T/C (dose: 14.0 mg/kg/injection, schedule: Q01DX015 (ip), vehicle: water): 117 % of control
T/C (dose: 15.0 mg/kg/injection, schedule: Q02DX Z (ip), vehicle: water): 108 % of control
T/C (dose: 25.0 mg/kg/injection, schedule: Q01DX015 (ip), vehicle: water): 98 % of control
T/C (dose: 30.0 mg/kg/injection, schedule: Q02DX Z (ip), vehicle: water): 150 % of control
T/C (dose: 250.0 mg/kg/injection, schedule: Q01DX Z (ip), vehicle: saline): 154 % of control

CCCC(C(=O)O)c1ccccc1C (configuration not stated)
T/C [10]: 102 % of control
T/C [11]: 102 % of control
T/C (dose: 200.0 mg/kg/injection, schedule: Q01DX009 (ip), vehicle: saline with Tween-80): 98 % of control
T/C [12]: 97 % of control
T/C (dose: 400.0 mg/kg/injection, schedule: Q01DX009 (ip), vehicle: saline with Tween-80): 105 % of control
T/C [13]: 107 % of control

O=c1cc(NCc2c(Cl)cccc2[N+](=O)[O-])[nH]c(=O)[nH]1
T/C [7]: 98 % of control
T/C [8]: 95 % of control
T/C [9]: 95 % of control

CN(CSc1c(Cl)c(Cl)c(Cl)c(Cl)c1Cl)c1ccccc1
T/C [14]: 103 % of control
T/C [15]: 98 % of control
T/C [16]: 93 % of control

O=NN(CC(=O)O)c1ccc2ccccc2c1
T/C [5]: 90 % of control
T/C [6]: 90 % of control
T/C (dose: 400.0 mg/kg/injection, schedule: Q04DX002 (ip), vehicle: saline with Tween-80): 93 % of control

O=C(O)C1C(C(=O)O)C23CC2(C(=O)O)C2(C(=O)O)CCC3=C3CCCC312 (configuration not stated)
T/C (dose: 6.25 mg/kg/injection, schedule: Q01DX009 (ip), vehicle: saline): 109 % of control
T/C (dose: 6.25 mg/kg/injection, schedule: Q04DX003 (ip), vehicle: saline): 104 % of control
T/C (dose: 12.5 mg/kg/injection, schedule: Q01DX001 (ip), vehicle: saline): 114 % of control
T/C (dose: 12.5 mg/kg/injection, schedule: Q01DX009 (ip), vehicle: saline): 111 % of control
T/C (dose: 12.5 mg/kg/injection, schedule: Q04DX003 (ip), vehicle: saline): 104 % of control
T/C (dose: 25.0 mg/kg/injection, schedule: Q01DX001 (ip), vehicle: saline): 98 % of control
T/C (dose: 25.0 mg/kg/injection, schedule: Q04DX003 (ip), vehicle: saline): 103 % of control

Cc1ccc(C2CC2S(=O)(=O)c2ccccc2)cc1 (configuration not stated)
T/C [17]: 108 % of control
T/C [18]: 112 % of control
T/C [19]: 102 % of control

C1CCN(/N=N/c2nn[nH]n2)CC1
T/C [11]: 94 % of control
T/C [12]: 91 % of control
T/C [13]: 94 % of control

CCC1C2CC3C4N(C)c5ccccc5C45CC(C2C5O)N3C1O (configuration not stated)
T/C [4]: 100 % of control
T/C [10]: 103 % of control

CC(=O)OCC(=O)[C@@]1(O)CC[C@H]2[C@@H]3CCC4=CC(=O)CC[C@]4(C)C3=CC[C@@]21C
T/C (dose: 12.5 mg/kg/injection, schedule: Q04DX003 (ip), vehicle: saline with Tween-80): 95 % of control
T/C (dose: 25.0 mg/kg/injection, schedule: Q04DX003 (ip), vehicle: saline with Tween-80): 93 % of control
T/C (dose: 50.0 mg/kg/injection, schedule: Q04DX003 (ip), vehicle: saline with Tween-80): 90 % of control

O=C(Nc1ccc(Cl)c(Cl)c1)Oc1cccc(NC(=S)Nc2ccccc2)c1
T/C [20]: 94 % of control
T/C [21]: 94 % of control
T/C [22]: 94 % of control

c1ccc(-c2nccnc2-c2ccccc2)cc1
T/C [14]: 93 % of control
T/C [15]: 107 % of control
T/C [16]: 111 % of control

Cc1ccc(S(=O)(=O)NCCC(=O)O)cc1
T/C [17]: 93 % of control
T/C [18]: 98 % of control
T/C [19]: 98 % of control

O=S(=O)(O)C(Nc1ccccn1)c1ccccc1 (configuration not stated)
T/C (dose: 100.0 mg/kg/injection, schedule: Q01DX001 (ip), vehicle: saline with Tween-80): 104 % of control

Nc1nc(N)c(CCCOc2ccc(C(=O)O)cc2)c(N)n1
T/C (dose: 12.5 mg/kg/injection, schedule: Q01DX009 (ip), vehicle: Klucel (hydroxypropylcellulose) (HPC)): 95 % of control
T/C (dose: 25.0 mg/kg/injection, schedule: Q01DX009 (ip), vehicle: Klucel (hydroxypropylcellulose) (HPC)): 100 % of control
T/C (dose: 50.0 mg/kg/injection, schedule: Q01DX009 (ip), vehicle: Klucel (hydroxypropylcellulose) (HPC)): 93 % of control

C=C(C)C1(CCC(C)C)C(=O)NC(=O)NC1=O
T/C (dose: 75.0 mg/kg/injection, schedule: Q01DX001 (ip), vehicle: saline): 109 % of control
T/C (dose: 150.0 mg/kg/injection, schedule: Q01DX001 (ip), vehicle: saline): 104 % of control
T/C (dose: 300.0 mg/kg/injection, schedule: Q01DX001 (ip), vehicle: saline): 105 % of control

CC1C(=O)CCCC1=O
T/C [20]: 101 % of control
T/C [21]: 101 % of control
T/C [22]: 95 % of control

— PubChem BioAssay AID248 (DTP/NCI, 2004)
